Several values for one entry are separate records, joined by “and”; a condition that tells them apart may be missing. Identical values can stand only once.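 1) Cells in 96-well plates. 2) Compound, 48 h, 5 concentrations. 3) Linear interpolation between surrounding doses. 4) Unreached endpoint = highest concentration. GI50 is the concentration that inhibits growth by half. TGI: concentration producing complete growth inhibition.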
Legend:
Assay in all cases: growth of human tumour cells (NCI), 48 h
HCC-2998 colon = tested on: HCC-2998 colon
NCI-H226 lung = tested on: NCI-H226 lung
MCF7 breast = tested on: MCF7 breast
HCT-116 colon = tested on: HCT-116 colon
HL-60(TB) leukemia = tested on: HL-60(TB) leukemia
CCRF-CEM leukemia = tested on: CCRF-CEM leukemia
MALME-3M melanoma = tested on: MALME-3M melanoma
U251 CNS = tested on: U251 CNS
COLO 205 colon = tested on: COLO 205 colon
T-47D breast = tested on: T-47D breast

| Structure (SMILES) | GI50 (HCC-2998 colon) | TGI (HCC-2998 colon) | GI50 (NCI-H226 lung) | TGI (NCI-H226 lung) | GI50 (MCF7 breast) | TGI (MCF7 breast) | GI50 (HCT-116 colon) | TGI (HCT-116 colon) | GI50 (HL-60(TB) leukemia) | TGI (HL-60(TB) leukemia) | GI50 (CCRF-CEM leukemia) | TGI (CCRF-CEM leukemia) | TGI (MALME-3M melanoma) | TGI (U251 CNS) | TGI (COLO 205 colon) | GI50 (MALME-3M melanoma) | GI50 (U251 CNS) | GI50 (T-47D breast) | TGI (T-47D breast) | GI50 (COLO 205 colon) |
| --- | --- | --- | --- | --- | --- | --- | --- | --- | --- | --- | --- | --- | --- | --- | --- | --- | --- | --- | --- | --- |
| CC1NC(=O)C2=C1C(=O)NC(=O)C2 (stereo not given) | > 100 µM | > 100 µM | > 100 µM | > 100 µM | > 100 µM | > 100 µM | > 100 µM | > 100 µM | > 100 µM | > 100 µM | > 100 µM | > 100 µM | – | – | – | – | – | – | – | – |
| COC(=O)[C@@]12CC(C(C)C)[C@H]3CC(C(=O)C=C1OC)[C@H]32 (stereo not given in full) | – | > 100 µM | – | – | – | – | – | > 100 µM | – | > 100 µM | – | > 100 µM | > 100 µM | > 100 µM | > 100 µM | – | – | – | – | – |
| CN(/N=C/c1ccnc2ccccc12)c1c([N+](=O)[O-])cc([N+](=O)[O-])cc1[N+](=O)[O-] | – | > 100 µM | – | > 100 µM | – | – | – | – | – | 61.2 µM | – | > 100 µM | 99.1 µM | > 100 µM | > 100 µM | – | – | – | – | – |
| Oc1c(Cl)cc(Cl)c2ccc(Cn3cc(-c4ccc(C(F)(F)F)cc4)nn3)nc12 | 5.86 µM | 20.3 µM | 5.64 µM | 26.7 µM | – | – | 0.692 µM | 2.57 µM | 0.685 µM | 3.65 µM | 0.357 µM | > 100 µM | 3.13 µM | 17.2 µM | 3.14 µM | 1.63 µM | 4.43 µM | 1.88 µM | 5.59 µM | 1.39 µM |
| CC(=O)c1cc(C(=O)c2ccc3c(c2)Sc2ccccc2N3)n2ccccc12 | 0.0199 µM and 0.0295 µM | > 33.2 µM | – | > 33.2 µM | 0.00344 µM and 0.00332 µM | > 33.2 µM | 0.00398 µM and 0.00332 µM | – | 0.00237 µM | 0.0056 µM | 0.0033 µM and 0.00332 µM | > 33.2 µM | – | 16.4 µM | 0.0213 µM and 0.00993 µM | 0.00487 µM | 0.00492 µM and 0.00332 µM | – | – | 0.00327 µM and 0.00332 µM |
| Clc1cccc(-c2nnc(-c3nn(-c4ccccc4)c4nc5ccccc5nc34)o2)c1 | – | > 100 µM | – | > 100 µM | – | – | – | > 100 µM | – | > 100 µM | – | > 100 µM | > 100 µM | > 100 µM | > 100 µM | – | – | – | – | – |
| CC(=O)[CH-]C(=O)c1ccccc1.CC(=O)[CH-]C(=O)c1ccccc1.CC(=O)[CH-]C(=O)c1ccccc1.[Nd+3].[OH3+] | 85.7 µM | > 100 µM | > 100 µM | > 100 µM | – | – | 46.7 µM | > 100 µM | 30.1 µM | > 100 µM | 9.7 µM | > 100 µM | 94.4 µM | > 100 µM | > 100 µM | 27.2 µM | 37 µM | – | – | 47.3 µM |
| CC(C)CCCCCCCCCCCCC(=O)NCC(=O)NC1C(O)C(O)C(Nc2ncnc3nc[nH]c23)OC1C(O)CO (stereo not given) | < 1e-05 µM | – | – | – | 0.00287 µM and 0.0113 µM | 0.394 µM and 0.352 µM | – | – | – | – | 0.0318 µM and 0.023 µM | 0.59 µM and 3.36 µM | 0.0125 µM and 0.00724 µM | – | 0.00316 µM and 0.00155 µM and 0.00526 µM | – | – | – | 0.917 µM | – |
| O=C1c2ccccc2C2CCC1c1ccccc12 (stereo not given) | – | > 100 µM | – | > 100 µM | – | – | – | 46.4 µM | – | 38 µM | – | > 100 µM | 51.8 µM | > 100 µM | 46.8 µM | – | – | – | – | – |
| O=C1C2C3CC(C4C5C=CC(C5)C34)C2C2C3CC(C12)C1C2C=CC(C2)C31 (stereo not given) | – | > 100 µM | – | > 100 µM | – | – | – | > 100 µM | – | > 100 µM | – | > 100 µM | > 100 µM | > 100 µM | > 100 µM | – | – | – | – | – |
| N#CC(C(=O)/C(=N\NC(N)=O)C(C#N)c1ccccc1)c1ccccc1 (stereo not given) | – | > 100 µM | – | > 100 µM | – | – | – | > 100 µM | – | > 100 µM | – | > 100 µM | > 100 µM | > 100 µM | > 100 µM | – | – | – | – | – |
| Cn1c2c(c3c(Cl)nncc31)Cc1ccccc1-2 | 20.9 µM | > 100 µM | 15.6 µM | 46.8 µM | 9.03 µM | > 100 µM | 17.9 µM | > 100 µM | – | – | 15.3 µM | > 100 µM | 85.6 µM | > 100 µM | 50.2 µM | 24.9 µM | 20 µM | – | – | 15.3 µM |
| COc1cc(/C=N/N=C(\N)NO)c(Cl)cc1O | – | > 100 µM | – | > 100 µM | – | – | – | > 100 µM | – | – | – | > 100 µM | > 100 µM | > 100 µM | > 100 µM | – | – | – | – | – |
| COC(=O)c1cc2c3ccccc3n3c2c(n1)-c1[nH]c2ccccc2c(=O)c1C3 | > 100 µM | > 100 µM | – | – | 15.6 µM | > 100 µM | 21 µM | > 100 µM | > 100 µM | > 100 µM | 2.19 µM | > 100 µM | > 100 µM | 52.3 µM | > 100 µM | > 100 µM | 15.2 µM | 58.4 µM | > 100 µM | > 100 µM |
| Nc1c(Cl)ncnc1NCCCCCCCCCCCCNc1ncnc(Cl)c1N | – | 56.9 µM | – | – | – | – | – | 6.05 µM | – | 2.12 µM | – | – | > 100 µM | 4.64 µM | 21.9 µM | – | – | – | – | – |
| Clc1cccc(C2N3CCCCC3[C@@H]3c4[nH]c5ccccc5c4CCN23)c1 (stereo not given in full) | – | 99.7 µM | – | – | – | – | – | 30.8 µM | – | 44.1 µM | – | 56.6 µM | 42.2 µM | 73.5 µM | – | – | – | – | – | – |
| CCNC(=O)OCc1c(COC(=O)NCC)c(-c2ccc(Cl)c(Cl)c2)n2c1CCC2 | – | 27.7 µM | – | 7.85 µM | – | – | – | 33.6 µM | – | 22.2 µM | – | 21.4 µM | 30.7 µM | 28.6 µM | 62.1 µM | – | – | – | – | – |
| CC(=O)[C@H]1CCC2[C@@H]3CC=C4C[C@@H]([O-])CC[C@]4(C)C3CC[C@@]21C.CC(=O)[C@H]1CCC2[C@@H]3CC=C4C[C@@H]([O-])CC[C@]4(C)C3CC[C@@]21C.CC(=O)[CH-]C(=O)c1ccccc1.CC(=O)[CH-]C(=O)c1ccccc1.Cl.[Ti+4] (stereo not given in full) | 33.2 µM | 85.3 µM | 16.1 µM | 44.9 µM | – | – | 25.7 µM | > 100 µM | 4.64 µM | > 100 µM | 10.6 µM | > 100 µM | 37.3 µM | – | > 100 µM | 16 µM | – | – | – | 39.3 µM |
| COc1ccc(S(=O)(=O)N(CC(=O)O)c2ccccc2)cc1 | – | > 100 µM | – | – | – | – | – | – | – | > 100 µM | – | > 100 µM | > 100 µM | > 100 µM | > 100 µM | – | – | – | – | – |
| O=c1c(Cl)c(Cl)cnn1CCCl | – | 9.39 µM | – | 52.4 µM | – | – | – | 17 µM | – | 5.58 µM | – | 4.84 µM | 7.14 µM | 12.3 µM | 7.69 µM | – | – | – | 14.6 µM | – |

From PubChem BioAssay (NCI)
